Test results as given in US20190290656A1, “PT(IV) PRODRUGS” (YISSUM RESEARCH DEVELOPMENT COMPANY OF THE HEBREW …, priority 2015, published 2019).
Entries after “also recorded” stand apart in the source; their conditions may differ. Like-named read-outs stand apart in the source and are kept apart here.

Assays:
A431 cells = test: MTT cytotoxicity assay, A431; assay type: cell-based, human; settings: A431, 72 h
Experimental: (§1) MTT assay. […] Triplicate cultures were established for each treatment.
(§2) The two dimers, 3a and 3b, as well as compounds 1a and 2a were screened against six human cancer cell lines representative of lung (H157), colon (HCT-15), cervical (A431), ovarian (2008) and pancreatic (PSN1) cancers, along with melanoma (A375). Cytotoxicity was evaluated by means of the MTT test after 72 h of treatment and the in vitro antitumor potential of newly synthesized derivatives was compared to that of the reference metallo-drugs CDDP and OXP.

HCT-15 cells = test: MTT cytotoxicity assay, HCT-15; assay type: cell-based, human
Experimental: (§3) Cisplatin (CDDP) and oxaliplatin (OXP) were dissolved just before the experiment in a 0.9% NaCl solution. […]
(§4) Cancer Res. 1988, 48, 589-601]. […] Triplicate cultures were established for each treatment.
as §1, §2

A375 cells = test: MTT cytotoxicity assay, A375; assay type: cell-based, human
Experimental: as §3, §4, §1, §2

PSN1 cells = test: MTT cytotoxicity assay, PSN1; assay type: cell-based, human; settings: PSN1, 72 h, MTT
Experimental: as §1, §2

BxPC3 cells = test: MTT cytotoxicity assay, BxPC3; assay type: cell-based, human; settings: BxPC3, 72 h exposure, MTT; read-out: IC50 (median growth inhibitory concentration)
A2780 cells = test: MTT cytotoxicity assay, A2780; assay type: cell-based, human; settings: A2780, 72 h exposure, MTT; read-out: IC50 (median growth inhibitory concentration)
Experimental: (§5) Platinum(IV) complexes were dissolved in DMSO to stock solutions of 1 mg/mL just before the experiment, and a calculated amount of drug solution was added to the cell growth medium to a final solvent concentration of 0.5%, which had no discernible effect on cell killing. Cisplatin (CDDP) and oxaliplatin (OXP) were dissolved just before the experiment in a 0.9% NaCl solution.
(§6) Human prostate adenocarcinoma (PC3) cells were obtained from European Collection of Cell Cultures (ECACC, Salisbury, UK). Human ovarian cancer cell lines A2780 and its cisplatin resistant variant, A2780cisR, were kindly provided by Prof.
as §4

A549 cells = test: MTT cytotoxicity assay, A549; assay type: cell-based, human; settings: A549, 72 h exposure, MTT; read-out: IC50 (median growth inhibitory concentration)
Experimental: (§7) Cisplatin (CDDP) and oxaliplatin (OXP) were dissolved just before the experiment in a 0.9% NaCl solution.
as §6
(§8) Triplicate cultures were established for each treatment.

A2780cisR cells = test: MTT cytotoxicity assay, A2780cisR (cisplatin resistant); assay type: cell-based, human; settings: for IC50: 72 h exposure, MTT, read-out: IC50 (median growth inhibitory concentration); for resistance factor: ratio IC50 resistant (A2780cisR) / sensitive (A2780) cells
Experimental: as §5, §6, §4

nine cancer cell lines = test: MTT cytotoxicity, over the nine cancer cell lines; settings: for cytotoxicity IC50 values (in words): uncoordinated ligands
PC3 cells = test: MTT cytotoxicity assay, PC3; assay type: cell-based, human; settings: PC3, 72 h exposure, read-out: IC50 (median growth inhibitory concentration)
Experimental: as §7, §6, §8

MCF-7 cells = test: MTT cytotoxicity assay, MCF-7; assay type: cell-based, human; settings: MCF-7, 72 h exposure, MTT; read-out: IC50 (median growth inhibitory concentration)
Experimental: as §7, §6, §8

A498 cells = test: MTT cytotoxicity assay, A498; assay type: cell-based, human; settings: A498, 72 h exposure, read-out: IC50 (median growth inhibitory concentration)
Experimental: as §5, §6, §4

2008 cells = test: MTT cytotoxicity assay, 2008; assay type: cell-based, human; settings: 2008, 72 h, MTT
Experimental: as §1, §2

BxPC3 spheroids = test: 3D spheroid APH assay, BxPC3; assay type: cell-based, human; settings: 72 h, APH test
Description: (§9) Acid phosphatase (APH) assay. A modified APH assay, which is based on quantification of cytosolic acid phosphatase activity, was used for determining cell viability in spheroids. […] Triplicate cultures were established for each treatment. […] Evaluation was based on means from at least four independent experiments.
(§10) In order to improve the predictive capacity of the in vitro assays, we tested the activity in three three-dimensional (3D) cell cultures; human colon cancer cells, HCT-15, and human pancreatic cancer cells, KRAS wild type BxPC3 cells KRAS mutated PSN-1 cells. The cancer spheroids were treated with 3a and 3b for 72 h and the cell viability was assessed by means of the APH assay (Table 6). For comparison purposes, the cytotoxicities of CDDP and OXP were evaluated under the same experimental conditions.

HCT-15 spheroids = test: 3D spheroid APH assay, HCT-15; assay type: cell-based, human; settings: HCT-15 spheroids, 72 h, APH test
Description: as §9, §10

[1] = tested on: human embryonic kidney HEK293 cells; test: MTT cytotoxicity against non-tumor cells; assay type: cell-based
Experimental: as §1
The cytotoxic activity of derivatives 3a and 3b was also evaluated against non-tumor cells, namely human embryonic kidney HEK293 cells (Table 7). Both compounds 3a and 3b were more cytotoxic than CDDP.

PSN-1 spheroids = test: 3D spheroid APH assay, PSN-1; assay type: cell-based, human; settings: PSN-1 spheroids, 72 h, APH test
Description: as §9, §10

H157 cells = test: MTT cytotoxicity assay, H157; assay type: cell-based, human; settings: H157, 72 h
Experimental: as §1, §2

[2] = tested on: Histone deacetylase (HDAC); test: Histone deacetylase assay (Fluor-de-Lys) in MCF-7 cells; assay type: cell-based, human
Experimental: Histone deacetylase activity was determined using Fluor-de-Lys® HDAC fluorometric activity assay kit (Enzo Life Sciences International, Inc., Plymount Meeting, Pa., U.S.A.). […] Fluorescence was measured using a Fluoroskan Ascent FL (Labsystem, Finland) plate reader, with excitation at 360 nm and emission at 460 nm. For comparison purpose, the HDAC activity was also measured in nuclear extracts of MCF-7-treated cells by means of the same fluorometric activity assay kit. In this latter case, MCF-7 nuclear extracts were obtained as follow: cell pellets were re-suspended in lysis buffer [Tris.HCl (10 mM, pH 8.0), KCl (60 mM), EDTA (1.2 mM), DTT (1 mM), PMSF (0.05 mM), NP-40 (0.05%)] and kept on ice for 10 min. Subsequently, samples were centrifuged at 1000 g and re-suspended in the nuclear extraction buffer [Tris.HCl (20 mM, (pH 8.0), NaCl (420 mM), MgCl2 (0.7 mM), EDTA (0.25 mM), glycerol (25%)] for 30 min at 4° C., and then centrifuged at 15000 g for 15 min at 4° C.
The complexes described here were specifically designed to release either VPA of PhB inside the cells in the hope that they will inhibit HDAC activity paving the way for more efficient DNA platination. Thus, in addition to measuring the levels of DNA platination, we also measured the ability of these pro-drugs to inhibit HDAC activity in cells. […] For comparison purposes, the HDAC inhibitory effect determined by tested complexes was also assayed in isolated nuclei of MCF-7 treated cells (FIG. 3B).
The HDAC activity was determined by the Fluor de Lys® Fluorescent Cellular Activity Assay (Enzo Life Sciences).
Also, MCF-7 cells were incubated for 24 h with increasing concentrations of compounds I-VIII and their HDAC activity was determined. The IC50 values for the inhibition of HDAC activity in the cells are depicted in FIG. 3C.

[3] = HCT-15, 72 h, MTT (Table 5), read-out: IC50 (μM) ± S.D.
[4] = A375, 72 h, MTT (Table 5), read-out: IC50 (μM) ± S.D.
[5] = HCT-15, 72 h exposure, MTT (Table 1), read-out: IC50 (median growth inhibitory concentration)
[6] = A375, 72 h exposure, MTT (Table 1), read-out: IC50 (median growth inhibitory concentration)
[7] = read-out: average IC50 values for the nine cancer cell lines, mean over nine cell lines, 72 h MTT

Molecule	IC50 (A431 cells) [µM]	IC50 (HCT-15 cells; [3]) [µM]	IC50 (A375 cells; [4]) [µM]	IC50 (PSN1 cells) [µM]	IC50 (BxPC3 cells) [µM]	IC50 (HCT-15 cells; [5]) [µM]	IC50 (A2780 cells) [µM]	IC50 (A549 cells) [µM]	IC50 (A2780cisR cells; A2780cisR) [µM]	IC50 (A375 cells; [6]) [µM]	IC50 (nine cancer cell lines; [7]) [µM]	IC50 (PC3 cells) [µM]	IC50 (MCF-7 cells) [µM]	IC50 (A498 cells) [µM]	also measured
c,c,t-[Pt(NH3)2Cl2(DCA)(GABA)](TFA) [Compound 1a]	4.98 ± 1.63	12.5 ± 3.58	2.81 ± 0.21	4.74 ± 2.87											
C1CCNCC1.CCCC(CCC)C(=O)[O][Pt]([OH])([Cl])[Cl].CCCCN [Compound V, trans-[Pt(n-butylamine)(VPA)(OH) (piperidine) Cl2]]					4.43 ± 1.94	14.4 ± 2.05	1.18 ± 0.33	15.5 ± 1.13	1.29 ± 0.29	12.4 ± 2.93	9.27	16.8 ± 1.41	8.8 ± 1.48	8.64 ± 0.95	fold more potent/effective than cisplatin (A2780cisR cells; A2780cisR): roughly 11 fold; resistance factor (A2780cisR cells): 1.1
CCCC(CCC)C(=O)[O][Pt]12([O]C(=O)C(CCC)CCC)([NH]C3CCCCC3[NH]1)[O]C(=O)C(=O)[O]2 (centres unmarked) [III, [Pt(DACH)(C8H15O2)2(ox)]]					14.4 ± 2.16	16.4 ± 1.63	1.3 ± 0.2	20.5 ± 2.14	8.8 ± 2.1	4.17 ± 0.87		10.1 ± 1.17	5.7 ± 0.9	5.21 ± 1.1	resistance factor (A2780cisR cells): 6.8
Cc1c(C)c2c3c4c1=CC=C[N]4[Pt+2][N]3C=CC=2.N[C@H]1CCCC[C@@H]1N [[Pt(DACH)(56Phen)], reference compound]	0.28 ± 0.08	0.69 ± 0.11	1.12 ± 0.42	0.25 ± 0.08											IC50 (2008 cells): 0.74 ± 0.12 µM; IC50 (BxPC3 spheroids): 100 ± 12.1 µM; IC50 (HCT-15 spheroids): 60.2 ± 2.92 µM; IC50 ([1]; HEK293 non-tumor cells, 72 h, MTT): 1.12 ± 0.87 µM; SI (selectivity index) ([1]; ratio between average IC50 of non-tumor cells and IC50 of malignant cells): 0.9; IC50 (PSN-1 spheroids): 55.5 ± 9.75 µM; IC50 (H157 cells): 0.16 ± 0.01 µM
CC(/C=C/C(=O)NO)=C\[C@@H](C)C(=O)c1ccc(N(C)C)cc1 [TSA, trichostatin A]															inhibition of HDAC activity ([2]; MCF-7, 24 h incubation with IC50 concentrations): about 90%
c,c,t-[Pt(DACH)(56Phen)(PhBu)(Succ)]Cl2 [Compound 2a]	4.15 ± 1.12	6.25 ± 3.08	1.57 ± 0.16	3.23 ± 1.12											
CC(=O)[O][Pt]([NH2])([NH2])([Cl])([Cl])[O]C(=O)CCCc1ccccc1 [VII, Ctc-[Pt(NH3)2(C2H3O2)(C10H11O2)Cl2]]					10.1 ± 1.69	5.17 ± 0.85	0.65 ± 0.04	7.16 ± 1.11	1.54 ± 0.27	6.25 ± 1.94	4.8	4.34 ± 1.25	3.43 ± 0.14	8.42 ± 1.47	factors more potent than cisplatin (nine cancer cell lines; in five out of the nine cell lines): 2.1-9 fold; IC50 (nine cancer cell lines; read-out: range of IC50 values over the cell lines, lowest-highest over nine cell lines): 0.65 to 10.1 µM
CCCC(CCC)C(=O)O [VPA, valproic acid, reference compound]															IC50 ([2]; MCF-7, 24 h, increasing concentrations, read-out: IC50 for cellular inhibition of HDAC activity): ~8000 µM; cytotoxicity IC50 values (in words) (nine cancer cell lines): millimolar range; also recorded: mM range
O=C(CCCc1ccccc1)[O][Pt]12([O]C(=O)CCCc3ccccc3)([NH]C3CCCCC3[NH]1)[O]C(=O)C(=O)[O]2 (centres unmarked) [VIII, [Pt(DACH)(C10H11O2)2(ox)]]					7.64 ± 1.15	12.5 ± 1.13	0.9 ± 0.08	19.6 ± 3.22	1.96 ± 0.44	0.64 ± 0.13	6.81	6.35 ± 1.19	2.28 ± 0.46	9.32 ± 1.07	
O=C(O)CCCc1ccccc1 [Compound 4-PB, 4-phenylbutyric acid, reference compound]															IC50 for cellular inhibition of HDAC activity (in words) ([2]; MCF-7, 24 h, increasing concentrations): significantly higher; cytotoxicity IC50 values (in words) (nine cancer cell lines; listed as PhB): millimolar range; also recorded: mM range
